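Dose response: 5 concentrations. Exposure: 48 h. Format: 96-well plates. Endpoint: linear interpolation; highest concentration if not reached. Abbreviation: GI50, concentration required for 50% inhibition of growth. The concentration for full growth arrest is given as TGI.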
Experiments:
Assay in all cases: NCI tumour cell line growth inhibition, 48 h
MCF7 breast = system: MCF7 breast
IGROV1 ovarian = system: IGROV1 ovarian
MDA-MB-231 breast = system: MDA-MB-231 breast
A498 renal = system: A498 renal
CAKI-1 renal = system: CAKI-1 renal
OVCAR-4 ovarian = system: OVCAR-4 ovarian
SNB-19 CNS = system: SNB-19 CNS
HCC-2998 colon = system: HCC-2998 colon
UACC-257 melanoma = system: UACC-257 melanoma
RXF 393 renal = system: RXF 393 renal
MDA-MB-435 = system: MDA-MB-435
HT29 colon = system: HT29 colon
SR leukemia = system: SR leukemia
HCT-15 colon = system: HCT-15 colon
TK-10 renal = system: TK-10 renal
K-562 leukemia = system: K-562 leukemia
HCT-116 colon = system: HCT-116 colon
EKVX NSCLC = system: EKVX NSCLC
HOP-92 NSCLC = system: HOP-92 NSCLC
BT-549 breast = system: BT-549 breast
KM12 colon = system: KM12 colon
MALME-3M melanoma = system: MALME-3M melanoma
SNB-75 CNS = system: SNB-75 CNS
OVCAR-8 ovarian = system: OVCAR-8 ovarian
M14 melanoma = system: M14 melanoma
NCI-H23 lung = system: NCI-H23 lung
SK-MEL-28 melanoma = system: SK-MEL-28 melanoma
786-0 renal = system: 786-0 renal
HOP-62 NSCLC = system: HOP-62 NSCLC
PC-3 prostate = system: PC-3 prostate
U251 CNS = system: U251 CNS
HL-60(TB) leukemia = system: HL-60(TB) leukemia
SW-620 colon = system: SW-620 colon
COLO 205 colon = system: COLO 205 colon
SF-268 CNS = system: SF-268 CNS
MDA-MB-468 breast = system: MDA-MB-468 breast
HS 578T breast = system: HS 578T breast
OVCAR-5 ovarian = system: OVCAR-5 ovarian
CCRF-CEM leukemia = system: CCRF-CEM leukemia
DU-145 prostate = system: DU-145 prostate
NCI-H460 lung = system: NCI-H460 lung
OVCAR-3 ovarian = system: OVCAR-3 ovarian
A549 NSCLC = system: A549 NSCLC
UACC-62 melanoma = system: UACC-62 melanoma
SK-MEL-5 melanoma = system: SK-MEL-5 melanoma
NCI-H226 lung = system: NCI-H226 lung
T-47D breast = system: T-47D breast
SF-295 CNS = system: SF-295 CNS
MOLT-4 leukemia = system: MOLT-4 leukemia
NCI/ADR-RES ovarian = system: NCI/ADR-RES ovarian
RPMI-8226 leukemia = system: RPMI-8226 leukemia
UO-31 renal = system: UO-31 renal
SK-OV-3 ovarian = system: SK-OV-3 ovarian
ACHN renal = system: ACHN renal
SF-539 CNS = system: SF-539 CNS
SK-MEL-2 melanoma = system: SK-MEL-2 melanoma
LOX IMVI melanoma = system: LOX IMVI melanoma
NCI-H522 lung = system: NCI-H522 lung
SN12C renal = system: SN12C renal

With O=C(O)CCCCCCCCCCN1C(=O)/C(=C/c2cnc(-c3ccc(Cl)cc3)s2)SC1=S the GI50 (MCF7 breast) was 3.73 µM, the TGI (MCF7 breast) was > 100 µM and the GI50 (IGROV1 ovarian) was 2.89 µM. It also gave a TGI (IGROV1 ovarian) of 13.7 µM, a GI50 (MDA-MB-231 breast) of 1.65 µM and a TGI (MDA-MB-231 breast) of 4.48 µM. The GI50 (A498 renal) was 15.9 µM, the TGI (A498 renal) was 34.5 µM and the GI50 (CAKI-1 renal) was 3.31 µM. The TGI (CAKI-1 renal) was 14.3 µM, the GI50 (OVCAR-4 ovarian) was 5.56 µM and the TGI (OVCAR-4 ovarian) was > 100 µM. It also gave a GI50 (SNB-19 CNS) of 2.86 µM, a TGI (SNB-19 CNS) of 9.76 µM and a GI50 (HCC-2998 colon) of 5.03 µM. The TGI (HCC-2998 colon) was > 100 µM, the GI50 (UACC-257 melanoma) was 5.6 µM and the TGI (UACC-257 melanoma) was > 100 µM. For the same compound, the GI50 (RXF 393 renal) was 12.1 µM, the TGI (RXF 393 renal) was 47.3 µM and the GI50 (MDA-MB-435) was 4.69 µM. For the same compound, the TGI (MDA-MB-435) was > 100 µM, the GI50 (HT29 colon) was > 100 µM and the TGI (HT29 colon) was > 100 µM. It also gave a GI50 (SR leukemia) of 0.367 µM, a TGI (SR leukemia) of 4.8 µM and a GI50 (HCT-15 colon) of 1.71 µM. It also gave a TGI (HCT-15 colon) of 3.67 µM, a GI50 (TK-10 renal) of 5.48 µM and a TGI (TK-10 renal) of 16.1 µM. The GI50 (K-562 leukemia) was 3.71 µM, the TGI (K-562 leukemia) was > 100 µM and the GI50 (HCT-116 colon) was 1.75 µM. For the same compound, the TGI (HCT-116 colon) was 7.51 µM, the GI50 (EKVX NSCLC) was 1.84 µM and the TGI (EKVX NSCLC) was 5.13 µM. The GI50 (HOP-92 NSCLC) was 0.292 µM, the TGI (HOP-92 NSCLC) was 1.79 µM and the GI50 (BT-549 breast) was 1.95 µM. The TGI (BT-549 breast) was 6.1 µM, the GI50 (KM12 colon) was 2.93 µM and the TGI (KM12 colon) was > 100 µM. The GI50 (MALME-3M melanoma) was 5.92 µM, the TGI (MALME-3M melanoma) was 28.1 µM and the GI50 (SNB-75 CNS) was 15.4 µM. For the same compound, the TGI (SNB-75 CNS) was 42.3 µM, the GI50 (OVCAR-8 ovarian) was 1.65 µM and the TGI (OVCAR-8 ovarian) was 5.11 µM. The GI50 (M14 melanoma) was 2.1 µM, the TGI (M14 melanoma) was 5.71 µM and the GI50 (NCI-H23 lung) was 2.43 µM. The TGI (NCI-H23 lung) was 8.95 µM, the GI50 (SK-MEL-28 melanoma) was 2.69 µM and the GI50 (786-0 renal) was 2.64 µM. For the same compound, the TGI (786-0 renal) was 9.67 µM, the GI50 (HOP-62 NSCLC) was 3.81 µM and the TGI (HOP-62 NSCLC) was 15.9 µM. For the same compound, the GI50 (PC-3 prostate) was 1.26 µM, the TGI (PC-3 prostate) was 4.9 µM and the GI50 (U251 CNS) was 2.07 µM. For the same compound, the TGI (U251 CNS) was 6.06 µM, the GI50 (HL-60(TB) leukemia) was 3.91 µM and the TGI (HL-60(TB) leukemia) was > 100 µM. For the same compound, the GI50 (SW-620 colon) was 2.52 µM, the TGI (SW-620 colon) was 7.21 µM and the GI50 (COLO 205 colon) was > 100 µM. The TGI (COLO 205 colon) was > 100 µM, the GI50 (SF-268 CNS) was 4.99 µM and the TGI (SF-268 CNS) was > 100 µM. It also gave a GI50 (MDA-MB-468 breast) of 2.63 µM, a TGI (MDA-MB-468 breast) of 12 µM and a GI50 (HS 578T breast) of 11.7 µM. The TGI (HS 578T breast) was > 100 µM, the GI50 (OVCAR-5 ovarian) was 2.59 µM and the TGI (OVCAR-5 ovarian) was > 100 µM. For the same compound, the GI50 (CCRF-CEM leukemia) was 3.11 µM, the TGI (CCRF-CEM leukemia) was > 100 µM and the GI50 (DU-145 prostate) was 1.81 µM. The TGI (DU-145 prostate) was 30 µM, the GI50 (NCI-H460 lung) was 1.37 µM and the TGI (NCI-H460 lung) was > 100 µM. For the same compound, the GI50 (OVCAR-3 ovarian) was 4.87 µM, the TGI (OVCAR-3 ovarian) was 51.4 µM and the GI50 (A549 NSCLC) was 1.01 µM. It also gave a TGI (A549 NSCLC) of 4.51 µM, a GI50 (UACC-62 melanoma) of 1.57 µM and a TGI (UACC-62 melanoma) of 3.29 µM. It also gave a GI50 (SK-MEL-5 melanoma) of 1.86 µM, a TGI (SK-MEL-5 melanoma) of 4.74 µM and a GI50 (NCI-H226 lung) of 6.46 µM. For the same compound, the TGI (NCI-H226 lung) was 57.2 µM, the GI50 (T-47D breast) was 4.77 µM and the TGI (T-47D breast) was > 100 µM. For the same compound, the GI50 (SF-295 CNS) was 2.29 µM, the TGI (SF-295 CNS) was 7.26 µM and the GI50 (MOLT-4 leukemia) was 3.39 µM. For the same compound, the TGI (MOLT-4 leukemia) was > 100 µM, the GI50 (NCI/ADR-RES ovarian) was 1.69 µM and the TGI (NCI/ADR-RES ovarian) was 8.18 µM. For the same compound, the GI50 (RPMI-8226 leukemia) was 10.3 µM, the TGI (RPMI-8226 leukemia) was > 100 µM and the GI50 (UO-31 renal) was 3.76 µM. For the same compound, the TGI (UO-31 renal) was 28.2 µM, the GI50 (SK-OV-3 ovarian) was 3.24 µM and the TGI (SK-OV-3 ovarian) was 8.72 µM. For the same compound, the GI50 (ACHN renal) was 2.38 µM, the TGI (ACHN renal) was 11.7 µM and the GI50 (SF-539 CNS) was 3.18 µM. For the same compound, the TGI (SF-539 CNS) was 13.2 µM, the GI50 (SK-MEL-2 melanoma) was 2.12 µM and the TGI (SK-MEL-2 melanoma) was 5.02 µM. For the same compound, the GI50 (LOX IMVI melanoma) was 1.69 µM, the TGI (LOX IMVI melanoma) was 3.87 µM and the GI50 (NCI-H522 lung) was 1.68 µM. It also gave a TGI (NCI-H522 lung) of 4.55 µM, a GI50 (SN12C renal) of 1.39 µM and a TGI (SN12C renal) of 2.89 µM.

Source: PubChem BioAssay (NCI)
